From PubChem BioAssay AID1053199 (The Scripps Research Institute Molecular Screening Center, 2014)
Calls of active or inactive are those of the source.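 The calls were made as follows: active = inhibition at or above 50% when tested at 10 µM; inactive = inhibition below 50% at 10 µM.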

Molecular target: Methionine--tRNA ligase, mitochondrial (Homo sapiens) (UniProt Q96GW9)
Experiment: human mitochondrial MetRS inhibition, late-stage follow-up, selectivity assay for T. brucei MetRS inhibitor project, biochemical, radioactivity, round 3 (AID 1053199)
Conditions: recombinant human mitochondrial MetRS, [3H]Met aminoacylation, stronger effect = higher value

Sequence of Methionine--tRNA ligase, mitochondrial (Homo sapiens) (Q96GW9 whole entry, looked up): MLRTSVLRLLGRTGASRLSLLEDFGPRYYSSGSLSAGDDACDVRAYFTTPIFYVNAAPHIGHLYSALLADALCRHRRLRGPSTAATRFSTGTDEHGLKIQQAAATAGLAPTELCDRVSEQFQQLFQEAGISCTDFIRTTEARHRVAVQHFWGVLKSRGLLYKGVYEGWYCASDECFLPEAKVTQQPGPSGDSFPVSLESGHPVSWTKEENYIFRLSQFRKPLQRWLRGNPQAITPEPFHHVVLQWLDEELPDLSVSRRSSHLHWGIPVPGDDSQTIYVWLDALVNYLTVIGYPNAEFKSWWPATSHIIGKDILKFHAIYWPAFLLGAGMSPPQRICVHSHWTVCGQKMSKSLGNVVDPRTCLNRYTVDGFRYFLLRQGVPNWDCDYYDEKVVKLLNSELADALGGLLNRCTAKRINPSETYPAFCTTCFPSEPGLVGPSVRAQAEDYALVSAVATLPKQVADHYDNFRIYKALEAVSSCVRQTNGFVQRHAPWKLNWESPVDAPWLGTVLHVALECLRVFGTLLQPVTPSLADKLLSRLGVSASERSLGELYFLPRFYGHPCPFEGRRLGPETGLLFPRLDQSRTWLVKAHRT

| SMILES | inhibition (at 10 µM) | inhibition (inhibition, at 1 µM) [%] |
| --- | --- | --- |
| CCN(CC)C(=O)C(=O)c1cn(CCNc2cccc(C(F)(F)F)c2)c2ccccc12 | 0.1% (inactive) | -5.12 |
| CCN(CC)C(=O)Cc1cn(CC(=O)Nc2cccc(C(F)(F)F)c2)c2ccccc12 | -11.2% (inactive) | -8.45 |
| Nc1c(Cl)ncnc1Nc1ccc(C(=O)O)cc1 | 6.59% (inactive) | 2.59 |
| O=C(Cc1ccc(Nc2nc3ccc(Br)cc3[nH]2)cc1)NCCc1cccs1 | 0.91% (inactive) | 5.12 |

Now from value to compound:

| inhibition (at 10 µM) | inhibition (inhibition, at 1 µM) [%] | SMILES |
| --- | --- | --- |
| 7.56% (inactive) | -2.44 | CCN(CC)C(=O)C(=O)c1cn(CC(=O)Nc2cc(Oc3ccc(F)cc3)cc(C(F)(F)F)c2)c2ccccc12 |
| 6.34% (inactive) | -6.59 | CCN(CC)C(=O)C(=O)c1cn(CC(=O)Nc2cc(Oc3ccccc3OC)cc(C(F)(F)F)c2)c2ccccc12 |
| 2.68% (inactive) | -2.31 | CCN(CC)C(=O)C(=O)c1cn(CCNc2cc(Oc3ccccc3)cc(C(F)(F)F)c2)c2ccccc12 |
| -4.45% (inactive) | -5.27 | CCN(CC)C(=O)C(=O)c1cn(CC(=O)Nc2cc(Oc3ccccc3F)cc(C(F)(F)F)c2)c2ccccc12 |
| -8.53% (inactive) | -1.57 | O=C(Cn1cc(C(=O)C(=O)NCc2ccccc2)c2ccccc21)Nc1cc(Oc2ccccc2)cc(C(F)(F)F)c1 |
| -1.74% (inactive) | -4.97 | CCN(CC)C(=O)C(=O)c1cn(CC(=O)Nc2cc(Oc3ccc(OC)cc3)cc(C(F)(F)F)c2)c2ccccc12 |
